Patent US20070037230A1 (priority 2005, published 2007)

Assays:
Format in all cases: binding
[1] = test system: Bacillus anthracis spores
[2] = test system: Bacillus anthracis spores; remark: listed apart in the source
[3] = test system: biotinylated Bacillus anthracis spores
[4] = test system: Bacillus licheniformis
[5] = test system: Bacillus subtilis
[6] = test system: Bacillus megaterium
[7] = test system: Bacillus thuringiensis
[8] = test system: Bacillus cereus

Row | Sequence | binding of phage to spores in ELISA revealed with monoclonal antibody BD8 [1] | binding in the phage-capture assay (percentage recovery, eluted to input phage) [2] | binding in the ELISA [3] | bound to Bacillus anthracis fold better than to Bacillus licheniformis [4] [fold] | bound to Bacillus anthracis fold better than to Bacillus subtilis [5] [fold] | bound to Bacillus anthracis fold better than to Bacillus megaterium [6] [fold] | bound to Bacillus anthracis fold better than to Bacillus thuringiensis [7] [fold] | bound to Bacillus anthracis fold better than to Bacillus cereus [8] [fold]
1 | VTRNTSAS | specific binding | high binding | high binding |  |  |  |  | 
2 | EPRAPASL |  | high binding |  |  |  |  |  | 
3 | ETRVPHGA |  |  | high binding | 12 | 24 | 24 | 2.2 | 2.4
4 | EPRLSPHS |  | high binding | high binding | 70 | 39 | 43 | 6.9 | 3.5
5 | DARGTTHM |  | high binding | high binding | 50 | 25 | 75 | 2.1 | 3.7
6 | DRTGATLT |  | high binding |  |  |  |  |  | 
